Data published in ChEMBL document CHEMBL3808342, “Discovery and optimization of a novel series of highly CNS penetrant M4 PAMs based on a 5,6-dimethyl-4-(piperidin-1-yl)thieno[2,3-d]pyrimidine core” (Bioorg Med Chem Lett, 2016).

What was measured:
[1] = Ratio of brain to plasma partition coefficient in Sprague-Dawley rat at 0.2 to 0.25 mg/kg, iv administered as cassette dose after 0.25 hrs; format: ADME, organism-based; details: for Kp: brain, 0.25 h; for Kp at 0.25 h: Sprague-Dawley, brain and plasma
[2] = target: T1, Muscarinic acetylcholine receptor M4 (Homo sapiens) (UniProt P08173); assay: Positive allosteric modulation of human M4 receptor expressed in CHO cells coexpressing Gqi5 by calcium mobilization assay relative to acetylcholine; format: functional, cell-based
T1 sequence (whole entry): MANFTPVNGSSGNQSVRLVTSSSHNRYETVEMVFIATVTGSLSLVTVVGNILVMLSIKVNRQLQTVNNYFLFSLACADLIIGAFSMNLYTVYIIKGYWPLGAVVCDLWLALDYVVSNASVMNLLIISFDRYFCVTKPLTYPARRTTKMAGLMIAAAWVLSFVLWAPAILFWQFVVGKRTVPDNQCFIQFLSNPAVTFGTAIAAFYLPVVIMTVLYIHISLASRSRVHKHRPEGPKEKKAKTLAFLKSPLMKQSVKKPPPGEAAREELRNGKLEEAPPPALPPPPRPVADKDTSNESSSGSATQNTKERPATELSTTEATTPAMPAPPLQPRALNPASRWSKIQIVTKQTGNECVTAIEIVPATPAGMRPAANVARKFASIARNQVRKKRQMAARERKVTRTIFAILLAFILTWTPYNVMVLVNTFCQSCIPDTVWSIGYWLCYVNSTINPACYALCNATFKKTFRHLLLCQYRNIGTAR

[3] = target: T2, Muscarinic acetylcholine receptor M4 (Homo sapiens, UniProt P08173); assay: Positive allosteric modulation of human M4 receptor expressed in CHO cells coexpressing Gqi5 by calcium mobilization assay; format: functional, cell-based; details: read-out: EC50
T2 sequence (P08173 whole entry): T1 sequence (whole entry)

[4] = Ratio of unbound brain-to-plasma concentration in Sprague-Dawley rat at 0.2 to 0.25 mg/kg, iv administered as cassette dose after 0.25 hrs; format: ADME, organism-based
[5] = Drug metabolism in human hepatic microsomes assessed as compound oxidation; format: ADME, Liver, Microsome
[6] = Drug metabolism in rat hepatic microsomes assessed as hydroxylation of 5,6-dimethyl moiety; format: ADME, Liver, Microsome
[7] = target: T3, Muscarinic acetylcholine receptor M1 (Homo sapiens, UniProt P11229); assay: Positive allosteric modulation of human M1 receptor expressed in CHOK1 cells by calcium mobilization assay
T3 sequence (P11229 whole entry): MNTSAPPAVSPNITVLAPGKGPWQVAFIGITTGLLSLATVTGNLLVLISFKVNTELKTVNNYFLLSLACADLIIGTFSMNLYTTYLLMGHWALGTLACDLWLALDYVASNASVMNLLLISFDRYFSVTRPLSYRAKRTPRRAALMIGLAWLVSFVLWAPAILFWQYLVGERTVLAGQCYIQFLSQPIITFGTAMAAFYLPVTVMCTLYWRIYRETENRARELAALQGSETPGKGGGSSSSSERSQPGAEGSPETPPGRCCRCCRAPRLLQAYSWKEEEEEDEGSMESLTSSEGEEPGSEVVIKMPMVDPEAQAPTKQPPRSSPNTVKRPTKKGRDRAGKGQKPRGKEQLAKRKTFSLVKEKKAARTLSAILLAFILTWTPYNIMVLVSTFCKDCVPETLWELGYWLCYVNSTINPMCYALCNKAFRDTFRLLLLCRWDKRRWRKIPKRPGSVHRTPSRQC

[8] = target: T4, Muscarinic acetylcholine receptor M2 (Homo sapiens, UniProt P08172); assay: Positive allosteric modulation of human M2
T4 sequence (P08172 whole entry): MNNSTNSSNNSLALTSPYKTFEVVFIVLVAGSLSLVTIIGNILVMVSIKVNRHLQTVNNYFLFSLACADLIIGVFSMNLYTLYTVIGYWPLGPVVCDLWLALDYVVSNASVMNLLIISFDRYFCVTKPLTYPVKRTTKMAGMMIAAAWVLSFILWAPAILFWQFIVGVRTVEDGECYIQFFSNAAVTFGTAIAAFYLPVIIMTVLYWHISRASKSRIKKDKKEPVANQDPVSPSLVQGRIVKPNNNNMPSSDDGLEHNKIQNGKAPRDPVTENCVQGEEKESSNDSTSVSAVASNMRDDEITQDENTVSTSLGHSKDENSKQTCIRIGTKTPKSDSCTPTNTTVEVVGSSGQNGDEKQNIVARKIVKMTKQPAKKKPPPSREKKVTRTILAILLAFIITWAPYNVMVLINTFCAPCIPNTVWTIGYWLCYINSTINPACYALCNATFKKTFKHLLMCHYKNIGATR

[9] = target: T5, Muscarinic acetylcholine receptor M5 (Homo sapiens, UniProt P08912); assay: Positive allosteric modulation of human M5 receptor expressed in CHOK1 cells by calcium mobilization assay; format: functional, cell-based, CHO-K1
T5 sequence (P08912 whole entry): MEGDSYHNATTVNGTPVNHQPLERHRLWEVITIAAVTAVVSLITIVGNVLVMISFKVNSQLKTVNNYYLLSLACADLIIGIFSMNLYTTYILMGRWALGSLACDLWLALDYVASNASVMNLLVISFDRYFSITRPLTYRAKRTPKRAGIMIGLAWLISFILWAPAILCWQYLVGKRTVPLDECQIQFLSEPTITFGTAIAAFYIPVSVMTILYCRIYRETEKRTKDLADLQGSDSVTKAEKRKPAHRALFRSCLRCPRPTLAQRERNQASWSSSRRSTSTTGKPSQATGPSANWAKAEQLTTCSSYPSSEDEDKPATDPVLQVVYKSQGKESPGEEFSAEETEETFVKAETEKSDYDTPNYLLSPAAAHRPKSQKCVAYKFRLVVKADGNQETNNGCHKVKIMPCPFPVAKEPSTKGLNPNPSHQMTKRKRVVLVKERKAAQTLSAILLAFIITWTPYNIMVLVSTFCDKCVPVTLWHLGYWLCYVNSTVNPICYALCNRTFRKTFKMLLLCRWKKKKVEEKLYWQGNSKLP

[10] = target: Muscarinic acetylcholine receptor M3 (Homo sapiens, UniProt P20309); assay: Positive allosteric modulation of human M3
[11] = target: T6, Muscarinic acetylcholine receptor M4 (Rattus norvegicus, UniProt P08485); assay: Positive allosteric modulation of rat M4 receptor expressed in CHO cells coexpressing Gqi5 by calcium mobilization assay; format: functional, cell-based
T6 sequence (P08485 whole entry): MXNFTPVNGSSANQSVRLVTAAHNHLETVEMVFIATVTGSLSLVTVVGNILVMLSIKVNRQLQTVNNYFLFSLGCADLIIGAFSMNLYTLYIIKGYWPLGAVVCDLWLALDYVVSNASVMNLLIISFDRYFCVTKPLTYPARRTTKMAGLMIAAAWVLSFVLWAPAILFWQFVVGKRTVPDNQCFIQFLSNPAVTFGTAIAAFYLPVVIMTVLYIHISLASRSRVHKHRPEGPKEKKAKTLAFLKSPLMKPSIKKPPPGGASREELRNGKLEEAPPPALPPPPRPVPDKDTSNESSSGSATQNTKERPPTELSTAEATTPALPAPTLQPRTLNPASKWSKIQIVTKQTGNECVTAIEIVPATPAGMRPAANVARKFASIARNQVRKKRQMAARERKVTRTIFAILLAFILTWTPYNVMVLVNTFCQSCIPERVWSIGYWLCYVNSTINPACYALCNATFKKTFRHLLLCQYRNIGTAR

Plasma = assay: (§1) Fraction unbound in rat plasma; format: ADME, cell-free
Brain = assay: Fraction unbound in rat brain homogenate; format: ADME, tissue-based
[12] = Fraction unbound in human plasma; format: ADME, cell-free
[13] = target: T7, Muscarinic acetylcholine receptor M4 (Rattus norvegicus) (UniProt P08485); assay: Positive allosteric modulation of rat M4 receptor expressed in CHO cells coexpressing Gqi5 by calcium mobilization assay relative to acetylcholine; format: functional, cell-based
T7 sequence (whole entry): T6 sequence (P08485 whole entry)

[14] = target: T1, Muscarinic acetylcholine receptor M4 (Homo sapiens); assay: Antagonist activity at human M4 receptor expressed in CHO cells coexpressing Gqi5 assessed as acetylcholine-induced calcium mobilization; format: functional, cell-based; parameters: scale not given: the % may be the effect or the level left
[15] = as §1; format: ADME, cell-free
[16] = target: T2, Muscarinic acetylcholine receptor M4; assay: Antagonist activity at human M4 receptor expressed in CHO cells coexpressing Gqi5 by calcium mobilization assay; format: functional, cell-based

Sequence of Muscarinic acetylcholine receptor M3 (P20309 whole entry): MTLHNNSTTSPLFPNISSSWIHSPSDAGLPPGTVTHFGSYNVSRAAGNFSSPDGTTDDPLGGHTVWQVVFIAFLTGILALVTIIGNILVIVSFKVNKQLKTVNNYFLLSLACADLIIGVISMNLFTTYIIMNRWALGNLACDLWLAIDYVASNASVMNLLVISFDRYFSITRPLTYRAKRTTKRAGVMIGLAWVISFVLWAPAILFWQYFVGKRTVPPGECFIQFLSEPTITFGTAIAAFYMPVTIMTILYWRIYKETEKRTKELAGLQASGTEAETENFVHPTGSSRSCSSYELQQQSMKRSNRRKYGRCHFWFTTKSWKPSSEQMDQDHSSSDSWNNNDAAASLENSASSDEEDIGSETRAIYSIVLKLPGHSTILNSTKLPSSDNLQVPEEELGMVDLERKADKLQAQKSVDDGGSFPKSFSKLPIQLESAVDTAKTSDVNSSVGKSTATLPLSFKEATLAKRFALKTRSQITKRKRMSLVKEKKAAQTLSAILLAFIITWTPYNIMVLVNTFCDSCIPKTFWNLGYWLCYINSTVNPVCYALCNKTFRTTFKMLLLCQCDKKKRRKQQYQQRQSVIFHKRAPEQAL

SMILES	Kp [1]	%max [2]	EC50 [3]	K(p,uu,brain) [4]	other results
Cc1ccc(OC2CCN(c3nc(C)nn4ccc(C)c34)CC2)cn1	1.42	58%	1100 nM	1.95	–
Cc1sc2ncnc(N3CCC(C(=O)NCc4ccc(S(N)(=O)=O)cc4)CC3)c2c1C	–	67%	2300 nM	–	–
CNC(=O)c1ccc(NC(=O)C2CCN(c3ncnc4sc(C)c(C)c34)CC2)cc1	–	70%	570 nM	–	–
Cc1ccc(OC2CCN(c3ncnc4sc(C)c(C)c34)CC2)cn1	1.16	65%	600 nM	0.74	Drug metabolism [5]: metabolite_detected; Drug metabolism [6]: metabolite_detected
Cc1sc2ncnc(N3CCC(C(=O)Nc4ccc(F)cc4Cl)CC3)c2c1C	–	55%	1600 nM	–	–
Cc1sc2ncnc(N3CCC(C(=O)Nc4ccc(N5CCNC5=O)cc4)CC3)c2c1C	–	40%	6200 nM	–	–
Cc1ccc(OC2CCN(c3cc(C)nc4ccc(F)cc34)CC2)cn1	21.4	64%	690 nM	18.2	–
Cc1sc2ncnc(N3CCC(C(=O)Nc4cc(Cl)ccc4Cl)CC3)c2c1C	–	69%	3800 nM	–	–
Cc1sc2ncnc(N3CCC(C(=O)N4CCCC(F)(F)C4)CC3)c2c1C	–	60%	1900 nM	–	–
Cc1sc2ncnc(N3CCC(C(=O)Nc4ccc(S(C)(=O)=O)cc4)CC3)c2c1C	–	62%	850 nM	–	–
Cc1sc2ncnc(N3CCC(C(=O)Nc4ccc(C(N)=O)cc4)CC3)c2c1C	–	56%	390 nM	–	–
Cc1ccc(OC2CCN(c3ncnc4ccc(F)cc34)CC2)cn1	11.1	62%	600 nM	> 10	EC50 [7]: > 10000 nM; EC50 [8]: > 10000 nM; EC50 [9]: > 10000 nM; EC50 [10]: > 10000 nM; EC50 [11]: 950 nM; Fu (Plasma): 0.02; Fu (Brain): 0.03; Fu [12]: 0.16; %max [13]: 57%
Cc1sc2ncnc(N3CCC(C(=O)N4CCCc5cc(S(C)(=O)=O)ccc54)CC3)c2c1C	–	69%	960 nM	–	–
Cc1ccc2ncnc(N3CCC(Oc4ccc(C)nc4)CC3)c2c1	0.94	49%	1200 nM	0.62	–
Cc1sc2ncnc(N3CCC(C(=O)N4CCOCC4)CC3)c2c1C	–	65%	1700 nM	–	–
CCCN(c1ccc(C)nc1)C1CCN(c2ncnc3sc(C)c(C)c23)CC1	–	–	–	–	Activity [14]: 9.3%; Kp at 0.25 h [1]: 0.2; fraction unbound [15]: > 0.1; IC50 [16]: 2400 nM; Fu [12]: > 0.1
Cc1sc2ncnc(N3CCC(Oc4ccc5c(c4)CCO5)CC3)c2c1C	1.25	74%	2300 nM	1.38	–
Cc1sc2ncnc(N3CCC(C(=O)N4CCSCC4)CC3)c2c1C	–	75%	820 nM	–	–
Cc1sc2ncnc(N3CCC(Oc4ccc(Cl)nc4)CC3)c2c1C	2.56	64%	4300 nM	0.17	–
CCCCN(c1ccc(C)nc1)C1CCN(c2ncnc3sc(C)c(C)c23)CC1	–	–	–	–	Activity [14]: 8.7%; Kp at 0.25 h [1]: 0.2; fraction unbound [15]: > 0.1; IC50 [16]: 1500 nM; Fu [12]: > 0.1
Cc1sc2ncnc(N3CCC(C(=O)N4CC[C@H](F)C4)CC3)c2c1C	0.17	79%	970 nM	0.12	Fu (Plasma): 0.12; Fu [12]: 0.05
Cc1sc2ncnc(N3CCC(C(=O)N4CCCC4)CC3)c2c1C	0.45	68%	1100 nM	0.45	Fu (Plasma): 0.04; Fu [12]: 0.06
Cc1sc2ncnc(N3CCC(C(N)=O)CC3)c2c1C	–	25%	> 10000 nM	–	–
Cc1ncc(OC2CCN(c3ncnc4sc(C)c(C)c34)CC2)cn1	1.77	60%	4400 nM	0.65	–
Cc1sc2ncnc(N3CCC(Oc4ccc(F)nc4)CC3)c2c1C	2.8	68%	1800 nM	0.34	–
